Measured values taken from article PMC12675575, “A BRET biosensor for measuring uncompetitive engagement of PRMT5 complexes in cells” (Nature Communications, 2025).
Where “and” joins values, the source holds several entries; their conditions need not be identical. Identical values can stand only once.

Columns and labels:
PRMT5-NL = molecular target: T1, PRMT5-NL (Homo sapiens, UniProt O14744); experiment: CBH-002 affinity curve, HEK293, PRMT5-NL fusion with empty carrier DNA (no WDR77); type: cell-based; design: unit not given here; conditions: Figure S2B NL-PRMT5, log([CBH-002])
T1 construct: host or cells: HEK293
Protocol: (§1) HEK293 cells (ATCC) were cultured in DMEM (Thermo Fisher) + 10% (v/v) FBS (Seredigm), and HCT116 cells (Horizon Discovery, #PAR-034 and #R02-033) were cultured in McCoy’s 5A (Thermo Fisher) + 10% FBS, with incubation in a humidified, 37 °C/5% CO2 incubator. Cells were split 1–3 days prior to performing experiments and used at roughly 80% confluency. […] Cells were transfected according to the manufacturer’s protocol using FuGENE HD (Promega). NanoLuc fusion DNA was diluted into Transfection Carrier DNA (Promega) in Opti-MEM at a ratio of 1:9 (mass/mass), and FuGENE HD was added at a ratio of 1:3 (μg DNA:μL lipid). For experiments using WDR77, untagged WDR77 DNA (Promega) was used in place of Carrier DNA. Formed complexes were combined with cells resuspended to a density of 2 × 10^5 cells/mL in Opti-MEM + 1% FBS at a ratio of 1:20 (vol:vol). Cells were plated into a flask and incubated at 37 °C in a humidified 5% CO2 atmosphere for 18–24 h, before being lifted and seeded into 96-well non-binding surface-treated plates (Corning). Cells were seeded at a density of 2 × 10^5 cells/mL in Opti-MEM + 1% FBS in 100 μL (96-well). The BRET probe CBH-002 was prepared first as a 100× stock in 100% DMSO (Sigma) and then diluted to a 20× stock in NanoBRET Tracer Dilution buffer (Promega). Test compounds were prepared as 1000× stocks in 100% DMSO and diluted to 10× stocks in Opti-MEM to prepare working stocks. […] NanoBRET Complete 3x Substrate was prepared by combining Nano-Glo Substrate and Extracellular NanoLuc Inhibitor in Opti-MEM, according to the manufacturer’s protocol (Promega). NanoBRET Complete 3× Substrate was added to cells and plates were measured on either a PheraSTAR FSX equipped with 450 nm (donor) and 610 nm (acceptor) filters, or a GloMAX Discover equipped with 450/8 nm BP (donor) and 600 nm LP (acceptor) filters, using a 0.3 s integration time.
(§2) EC50 values were obtained by fitting the BRET probe and compound affinity curves to a sigmoidal four-parameter fit model in Graphpad Prism:1 Y=Ymin+Ymax−Ymin/1+10^LogEC50−Xh where h is the Hill Slope.

[1] = molecular target: NanoLuc-PRMT5 co-expressed with WDR77 (Homo sapiens, UniProt O14744); experiment: Live-cell NanoBRET target engagement with BRET probe CBH-002 in HEK293 cells expressing NanoLuc-PRMT5 and unlabeled WDR77; type: cell-based; design: host or cells: HEK293; key to BRET, CBH-002 + DMSO / BRET, CBH-002 + GSK3326595: mBRET units = acceptor/donor BRET ratio × 1000; conditions: for BRET, CBH-002 + DMSO / BRET, CBH-002 + GSK3326595: log([CBH-002]); for BRET, CBH-002 + GSK3326595: 10 µM GSK3326595
Protocol: as §1, with “For experiments using WDR77, untagged WDR77 DNA (Promega) was used in place of Carrier DNA.” left out, “Cells were plated into a flask and incubated at 37 °C in a humidified 5% CO2 atmosphere for 18–24 h, before being lifted and seeded into 96-well non-binding surface-treated plates (Corning).” left out, “(Promega).” for “(Promega). NanoBRET Complete 3× Substrate was added to cells and plates were measured on either a PheraSTAR FSX equipped with 450 nm (donor) and 610 nm (acceptor) filters, or a GloMAX Discover equipped with 450/8 nm BP (donor) and 600 nm LP (acceptor) filters, using a 0.3 s integration time.”
BRET ratio values were calculated by dividing the acceptor by the donor signal, and raw BRET was converted to milli-BRET (mBRET) units (mBu) by multiplying by 1000.
as §2
When normalized BRET was used, mBRET values were normalized using2 NormalizedBRET%=(Y−BRETmin)/BRETmax−BRETmin where y = mBRET in the presence of test compound and BRET probe, BRETmin = mBRET at the highest concentration (saturating) of test compound and BRET probe, and BRETmax = mBRET in the presence of vehicle (DMSO) and BRET probe.
Normalized concentration-response curves showing full competition were fit using a 2-parameter model:3 Y=100/1+10^LogEC50−Xh
In situations where only partial competition was observed, the normalized concentration-response curves were fit using Eq. 1 and where Ymin was constrained to >0.

T1 sequence (O14744 whole entry, the tested form may be a part): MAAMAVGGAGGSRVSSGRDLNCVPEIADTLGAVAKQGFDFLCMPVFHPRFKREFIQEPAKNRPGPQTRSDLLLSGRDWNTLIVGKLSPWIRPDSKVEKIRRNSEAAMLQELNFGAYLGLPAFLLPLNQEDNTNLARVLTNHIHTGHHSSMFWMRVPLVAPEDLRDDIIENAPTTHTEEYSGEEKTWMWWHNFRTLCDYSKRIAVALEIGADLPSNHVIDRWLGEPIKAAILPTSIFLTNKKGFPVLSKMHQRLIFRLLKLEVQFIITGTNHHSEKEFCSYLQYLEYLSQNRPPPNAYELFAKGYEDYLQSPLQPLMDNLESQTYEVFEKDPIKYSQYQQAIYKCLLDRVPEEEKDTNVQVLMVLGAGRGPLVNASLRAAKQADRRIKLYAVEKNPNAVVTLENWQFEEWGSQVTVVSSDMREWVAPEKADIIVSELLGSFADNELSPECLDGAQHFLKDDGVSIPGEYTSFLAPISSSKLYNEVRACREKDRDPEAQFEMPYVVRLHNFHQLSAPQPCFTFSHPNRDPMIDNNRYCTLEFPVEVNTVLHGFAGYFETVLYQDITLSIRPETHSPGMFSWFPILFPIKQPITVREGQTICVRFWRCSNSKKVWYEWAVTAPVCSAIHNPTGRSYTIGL
Sequence of NanoLuc-PRMT5 co-expressed with WDR77 (O14744 whole entry): as the sequence (O14744 whole entry, the tested form may be a part) above
Sequence of NanoLuc-PRMT5 co-expressed with WDR77 (Q9BQA1 whole entry partner): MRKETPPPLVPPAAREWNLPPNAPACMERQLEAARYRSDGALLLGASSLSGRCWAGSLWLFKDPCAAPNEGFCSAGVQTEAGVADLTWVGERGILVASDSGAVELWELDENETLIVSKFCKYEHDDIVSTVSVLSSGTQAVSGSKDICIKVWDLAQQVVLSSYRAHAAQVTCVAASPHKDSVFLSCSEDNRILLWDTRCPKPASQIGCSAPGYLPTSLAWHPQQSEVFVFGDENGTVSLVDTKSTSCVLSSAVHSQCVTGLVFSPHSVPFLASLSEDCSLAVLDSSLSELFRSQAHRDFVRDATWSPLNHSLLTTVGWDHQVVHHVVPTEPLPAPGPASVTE

Structure (SMILES): O=C(CCc1ccc2n1[B-](F)(F)[N+]1=C(c3ccc[nH]3)C=CC1=C2)NCCCCC(=O)N1CCC(Nc2cc(C(=O)NC[C@H](O)CN3CCc4ccccc4C3)ncn2)CC1 [CBH-002]
- BRET, CBH-002 + DMSO (PRMT5-NL; uM -1.03342): 12.5404 and 13.4407 and 13.3166
- BRET, CBH-002 + GSK3326595 (PRMT5-NL; uM -1.03342): 8.441 and 8.865 and 8.461
- BRET, CBH-002 + DMSO (PRMT5-NL; uM -1.51055): 10.7353 and 11.0633 and 11.2052
- BRET, CBH-002 + GSK3326595 (PRMT5-NL; uM -1.51055): 5.349 and 5.866 and 6.032
- BRET, CBH-002 + DMSO (PRMT5-NL; uM -1.98767): 8.8779 and 8.604 and 8.921
- BRET, CBH-002 + GSK3326595 (PRMT5-NL; uM -1.98767): 5.328 and 5.307 and 5.5055
- BRET, CBH-002 + DMSO (PRMT5-NL; uM -2.46479): 7.2471 and 8.258 and 8.573
- BRET, CBH-002 + GSK3326595 (PRMT5-NL; uM -2.46479): 3.609 and 3.848 and 3.767
- BRET, CBH-002 + DMSO (PRMT5-NL; uM -2.94191): 6.802 and 7.308 and 6.803
- BRET, CBH-002 + GSK3326595 (PRMT5-NL; uM -2.94191): 2.864 and 2.956 and 2.6211
- BRET, CBH-002 + DMSO (PRMT5-NL; uM -3.41903): 6.051 and 5.88 and 6.095
- BRET, CBH-002 + GSK3326595 (PRMT5-NL; uM -3.41903): 2.538 and 2.522 and 2.796
- BRET, CBH-002 + DMSO (PRMT5-NL; uM -3.89615): 5.285 and 4.8415 and 5.242
- BRET, CBH-002 + GSK3326595 (PRMT5-NL; uM -3.89615): 2.512 and 2.541 and 2.599
- BRET, CBH-002 + DMSO ([1]; uM 0.00): 772.09 and 714.74 and 694.22
- BRET, CBH-002 + GSK3326595 ([1]; uM 0.00): 61.04 and 53.68 and 50.91
- BRET, CBH-002 + DMSO ([1]; uM -0.30): 762.09 and 706.06 and 687.42
- BRET, CBH-002 + GSK3326595 ([1]; uM -0.30): 39.10 and 34.12 and 31.58
- BRET, CBH-002 + DMSO ([1]; uM -0.60): 725.23 and 680.05 and 663.94
- BRET, CBH-002 + GSK3326595 ([1]; uM -0.60): 21.81 and 20.23 and 18.49
- BRET, CBH-002 + DMSO ([1]; uM -0.90): 664.14 and 629.71 and 617.88
- BRET, CBH-002 + GSK3326595 ([1]; uM -0.90): 15.32 and 14.57 and 13.57
- BRET, CBH-002 + DMSO ([1]; uM -1.20): 530.53 and 496.08 and 504.63
- BRET, CBH-002 + GSK3326595 ([1]; uM -1.20): 11.35 and 11.22 and 10.54
- BRET, CBH-002 + DMSO ([1]; uM -1.51): 359.70 and 340.31 and 361.19
- BRET, CBH-002 + GSK3326595 ([1]; uM -1.51): 9.43 and 9.45 and 8.97
- BRET, CBH-002 + DMSO ([1]; uM -1.81): 238.28 and 223.48 and 233.43
- BRET, CBH-002 + GSK3326595 ([1]; uM -1.81): 8.65 and 8.75 and 8.42
- BRET, CBH-002 + DMSO ([1]; uM -2.11): 126.25 and 118.03 and 125.67
- BRET, CBH-002 + GSK3326595 ([1]; uM -2.11): 8.17 and 8.22 and 7.93
- BRET, CBH-002 + DMSO ([1]; uM -2.41): 70.04 and 65.87 and 70.86
- BRET, CBH-002 + GSK3326595 ([1]; uM -2.41): 7.94 and 8.15 and 7.70
- BRET, CBH-002 + DMSO ([1]; uM -2.71): 39.89 and 37.62 and 39.62
- BRET, CBH-002 + GSK3326595 ([1]; uM -2.71): 7.74 and 7.94 and 7.67
- BRET, CBH-002 + DMSO ([1]; uM -3.01): 23.90 and 22.68 and 24.07
- BRET, CBH-002 + GSK3326595 ([1]; uM -3.01): 7.80 and 7.76 and 7.50
- EC50 ([1]; probe titration against 10 µM GSK3326595 or DMSO, live HEK293, WDR77 co-expression, read-out: CBH-002 apparent affinity (EC50)): 0.033 µM
